Assay results published in paper PMC8876511, “Two out of Three Musketeers Fight against Cancer: Synthesis, Physicochemical, and Biological Properties of Phosphino Cu^I, Ru^II, Ir^III Complexes” (Pharmaceuticals, 2022).

System: A549 cells
Experiment: Annexin V-FITC/PI double staining, flow cytometry
Type: cell-based, human
Conditions: A549, 50 μM, 24 h
Description: The cell death induced by selected Ir(III) and Ru(II) complexes was assessed using Annexin V-FITC/PI double staining. Based on this assay the differentiation of the following cells population was possible: viable cells (Annexin-FITC negative, PI negative), apoptotic cells (Annexin-FITC positive, PI negative), late apoptotic cells (Annexin-FITC positive and PI positive), and necrotic cells (Annexin-FITC negative, PI positive). Treatment of A549 cells with Ir(III) or Ru(II) complexes leads to a dose-dependent increase in the percentage of cells in each phase (Figure 5).
Cell death was quantified using the AnnexinV-FITC/PI double staining kit (Sigma Aldrich). The cells (1 × 10^5 per well) were cultured overnight in 12-well plates. Then, cells were treated with tested compounds for 24 h. After this time, cells were passaged, collected by centrifugation, and washed twice in Hank’s Balanced Salt Solution (HBBS). The cells were then re-suspended in 500 μL binding buffer and stained with annexin V-FITC and PI according to the manufacturer’s instructions (Sigma Aldrich). Stained A549 cells were then examined using a Guava® easyCyte™ flow cytometer equipped with a 488 nm laser. The obtained data were analyzed using InCyte software (MerckMillipore, Burlington, MA, USA).

For “Ru(η^6-p-cymene)Cl2Ph2PCH2N(CH2CH3)2 [1b]”, the “late apoptotic cells (upper right quadrant)” value was 30%.
